Patent publication US12473291B2 (priority 2019, dated 2025)
Where two headings read alike, the source gives them in different places.

Legend:
KM mice = assay: animal or person; format: in vivo; conditions: for ED50: Mus musculus; for duration and recovery time compared with remimazolam / effective dose compared with remimazolam: mice, tail vein, in words
SD rats = assay: animal or person; format: in vivo; conditions: for ED50: Rattus norvegicus; for duration and recovery time compared with remimazolam / effective dose compared with remimazolam: rats, tail vein, in words
[1] = KM mice, single tail vein injection at 2×ED50, time from disappearance to recovery of righting reflex
[2] = KM mice, single tail vein injection at 2×ED50, time from recovery of righting reflex to free crawling
[3] = KM mice (male, 18-22 g), injection via the tail vein, disappearance of righting reflex, read-out: ED50
[4] = SD rats (male, 220-300 g), injection via the tail vein, disappearance of righting reflex, read-out: ED50
[5] = SD rats, single tail vein injection at 2×ED50, time from disappearance to recovery of righting reflex
[6] = SD rats, single tail vein injection at 2×ED50, time from recovery of righting reflex to free crawling

SMILES	2ED50 duration (KM mice; [1])	2ED50 recovery time (KM mice; [2])	ED50 (KM mice; [3])	duration and recovery time compared with remimazolam (KM mice)	effective dose compared with remimazolam (KM mice)	ED50 (SD rats; [4])	2ED50 duration (SD rats; [5])	2ED50 recovery time (SD rats; [6])	Quality of recovery (SD rats; SD rats, tail vein injection)	duration and recovery time compared with remimazolam (SD rats)	effective dose compared with remimazolam (SD rats)	ED50 (KM mice)	2ED50 duration (KM mice; mouse, in vivo)	2ED50 recovery time (KM mice; mouse, in vivo)	Quality of recovery (KM mice; mouse, in vivo)	ED50 (SD rats)	2ED50 duration (SD rats; rat, in vivo)	2ED50 recovery time (SD rats; rat, in vivo)	Quality of recovery (SD rats; rat, in vivo)	Quality of recovery (KM mice; KM mice, tail vein injection)
COC(=O)OC(C)OC(=O)CC[C@@H]1N=C(c2ccccn2)c2cc(Br)ccc2-n2c(C)cnc21 (stereo partly shown) [Example 53]	3.61 min	2.41 min	25.7 mg/kg	significantly shorter	significantly lower	6 mg/kg	3.18 min	2.47 min	++ (“++” means 1-3 min)	significantly shorter	significantly lower									
CCOC(=O)C1(OC(=O)CC[C@@H]2N=C(c3ccccn3)c3cc(Cl)c(Cl)cc3-n3c(C)cnc32)CC1 [Example 69, Ethyl 1-((3-((4S)-8,9-dichloro-1-methyl-6-(pyridine-2-yl)-4H-benzo[f]imidazo[1,2-a][1,4]diaza-4-yl)propionyl)oxy) cyclopropane-1-carboxylate benzoic acid]												23.8 mg/kg	3.45 min	2.38 min	++++ (key: “+” means <1 mm; “++” means 1-3 min; “+++” means 3-5 min; “++++” means 5-10 min; “+++++” means >10 mm)	6.1 mg/kg	3.16 min	2.48 min	++ (key: “+” means <1 mm; “++” means 1-3 min; “+++” means 3-5 min; “++++” means 5-10 min; “+++++” means >10 mm)	
COC(=O)C1(OC(=O)CC[C@@H]2N=C(c3ccccn3)c3cc(Cl)c(C)c(C)c3-n3c(C)cnc32)CC1 [Example 79, 1-((3-((4S)-8-chloro-1,9,10-trimethyl-6-(pyridine-2-yl)-4H-benzo[f]imidazo[1,2-a][1,4]diaza-4-yl)propionyl)oxy) cyclopropane-1-carboxylate 1-naphthoate]	3.45 min	1.38 min	31.3 mg/kg			6.6 mg/kg	2.48 min	2.19 min	+++ (“+++” means 3-5 min)											+++ (“+++” means 3-5 min)
CCc1c(Br)cc2c(c1Cl)-n1c(C)cnc1[C@H](CCC(=O)OC(C)(CC)SC(=O)OC)N=C2c1ccccn1 (stereo partly shown) [Example 63]	3.14 min	2.03 min	29.8 mg/kg			3.5 mg/kg	2.03 min	2.09 min	++ (“++” means 1-3 min)											++ (“++” means 1-3 min)
Cc1cnc2n1-c1c(Cl)c(Cl)c(Cl)c(Cl)c1C(c1ccccn1)=N[C@H]2CCC(=O)OCOC(=O)OC(C(C)C)C(C)C [Example 31]	2.13 min	1.04 min	17.3 mg/kg	significantly shorter	significantly lower	2.3 mg/kg	1.23 min	1.14 min	+ (“+” means <1 min)	significantly shorter	significantly lower									++ (“++” means 1-3 min)
Cc1cnc2n1-c1cc(Br)c(Br)cc1C(c1ccccn1)=N[C@H]2CCC(=O)OC(C)OC(=O)OC(C)C (stereo partly shown) [Example 17]	4.39 min	2.53 min	29.2 mg/kg			4.3 mg/kg	4.39 min	2.43 min	++ (“++” means 1-3 min)											++ (“++” means 1-3 min)
CCOC(=O)OCOC(=O)CC[C@@H]1N=C(c2ccccn2)c2cc(Br)ccc2-n2c(C)cnc21 [Example 35]	5.25 min	2.02 min	25.2 mg/kg			5.2 mg/kg	3.20 min	2.52 min	++ (“++” means 1-3 min)											+++ (“+++” means 3-5 min)
Cc1cnc2n1-c1cc(Br)c(Br)cc1C(c1ccccn1)=N[C@H]2CCC(=O)OC1(C(=O)OOC2CC(Cl)C2)CC1 (stereo partly shown) [Example 64]	3.09 min	2.12 min	24.1 mg/kg			2.7 mg/kg	3.15 min	2.18 min	++ (“++” means 1-3 min)											+++ (“+++” means 3-5 min)
Cc1c(Br)cc2c(c1Cl)-n1c(C)cnc1[C@H](CCC(=O)OC(C)(C)NC(=O)OC1CCC1)N=C2c1ccccn1 [Example 66]	3.14 min	2.35 min	30.4 mg/kg			4.8 mg/kg	4.02 min	2.17 min	++ (“++” means 1-3 min)											+++ (“+++” means 3-5 min)
CCOC(=O)OC(C)OC(=O)CC[C@@H]1N=C(c2ccccn2)c2cc(Br)ccc2-n2c(C)cnc21 (stereo partly shown) [Example 54]	8.52 min	1.56 min	25 mg/kg	significantly shorter	significantly lower	6.4 mg/kg	3.22 min	2.52 min	+++ (“+++” means 3-5 min)	significantly shorter	significantly lower									
COC(=O)OCOC(=O)CC[C@@H]1N=C(c2ccccn2)c2cc(Br)c(Br)cc2-n2c(C)cnc21 [Example 8]	5.23 min	2.18 min	27.5 mg/kg			5.8 mg/kg	5.05 min	2.18 min	++++ (“++++” means 5-10 min)											+++ (“+++” means 3-5 min)
Cc1cnc2n1-c1ccc(Br)cc1C(c1ccccn1)=N[C@H]2CCC(=O)OCOC(=O)OC(C)(C)C [Example 49]	2.65 min	1.22 min	20 mg/kg	significantly shorter	significantly lower	5 mg/kg	1.24 min	2.01 min	+ (“+” means <1 min)	significantly shorter	significantly lower									
COC(=O)C(CC(F)C(C)(C)OC(=O)CC[C@@H]1N=C(c2ccccn2)c2cc(Br)c(OC)cc2-n2c(C)cnc21)OC (stereo partly drawn) [Example 67, Methyl 5-((3-((4S)-8-bromo-9-methoxy-1-methyl-6-(pyridine-2-yl)-4H-benzo [f]imidazo[1,2-a][1,4]diazapin-4-yl)propionyl)oxy)-4-fluoro-2-methoxy-5-hexanoate adipate]	2.58 min	2.38 min	31.7 mg/kg			6.9 mg/kg	3.18 min	3.01 min	+++ (“+++” means 3-5 min)											++ (“++” means 1-3 min)
Cc1cnc2n1-c1cc(C(F)(F)F)c(Cl)cc1C(c1cccnc1)=N[C@H]2CCC(=O)OCOC(=O)OC(C)C [Example 32]	4.34 min	2.01 min	31.1 mg/kg			3.1 mg/kg	3.34 min	2.41 min	+++ (“+++” means 3-5 min)											++++ (“++++” means 5-10 min)
Cc1cnc2n1-c1ccc(Br)cc1C(c1ccccn1)=N[C@H]2CCC(=O)OCOC(=O)OC(C(C)C)C(C)C [Example 52]	>10 min	1.49 min	32 mg/kg			6.8 mg/kg	4.03 min	2.41 min	++ (“++” means 1-3 min)											++++ (“++++” means 5-10 min)
COC(=O)C1(OC(=O)CC[C@@H]2N=C(c3ccccn3)c3ccc(C(F)(F)F)c(Cl)c3-n3c(C)cnc32)CC1 [Example 41]	3.53 min	1.57 min	28.9 mg/kg			5.9 mg/kg	3.43 min	2.47 min	++ (“++” means 1-3 min)											++ (“++” means 1-3 min)
CCOC(=O)C(C)(C)OC(=O)CC[C@@H]1N=C(c2ccccn2)c2c(cc(C)c(Cl)c2C)-n2c(C)cnc21 [Example 77, Ethyl 2-((3-((4S)-8-chloro-1,7,9-trimethyl-6-(pyridine-2-yl)-4H-benzo[f]imidazo[1,2-a][1,4]diazapin-4-yl)propionyl)oxy)-2-methylpropionate 2-hydroxy-1-naphthoate]	3.28 min	2.39 min	30.2 mg/kg			6.1 mg/kg	2.38 min	2.47 min	+++ (“+++” means 3-5 min)											+++ (“+++” means 3-5 min)
Cc1cnc2n1-c1cc(Br)c(Br)cc1C(c1ccccn1)=N[C@H]2CCC(=O)OCOC(=O)OC(C)C(C)C (stereo partly shown) [Example 13]	5.22 min	2.34 min	27 mg/kg			5.3 mg/kg	4.02 min	2.45 min	+++ (“+++” means 3-5 min)											+++ (“+++” means 3-5 min)
